From publication PMC5936891, “A focused library synthesis and cytotoxicity of quinones derived from the natural product bolinaquinone” (Royal Society Open Science, 2018)
Where two headings read alike, the source gives them in different places.

Columns and labels:
[1] = tested on: HCT-116 colon carcinoma cells; conditions: cited from earlier work
NCI-H929 myeloma = tested on: NCI-H929 myeloma; parameters: method as in ref 23 = [23]; 23 Jiao W-H , Xu T-T , Yu H-B , Mu F-R , Li J , Li Y-S , Yang F , Han B-N , Lin H-W 2014 Dysidaminones A-M, cytotoxic and NF-B inhibitory sesquiterpene aminoquinones from the South China Sea sponge, D; conditions: cited from earlier work
[2] = tested on: HepG2 hepatoma cancer cell line; parameters: method as in ref 23 = [23]; 23 Jiao W-H , Xu T-T , Yu H-B , Mu F-R , Li J , Li Y-S , Yang F , Han B-N , Lin H-W 2014 Dysidaminones A-M, cytotoxic and NF-B inhibitory sesquiterpene aminoquinones from the South China Sea sponge, D; conditions: cited from earlier work
[3] = tested on: L5178Y mouse lymphoma cells; parameters: method as in PMID 19995673, PMID 3839712; conditions: cited from earlier work
HeLa = tested on: HeLa; parameters: method as in PMID 19995673, PMID 3839712; conditions: cited from earlier work
melanoma B16/F10 = tested on: melanoma B16/F10; parameters: method as in ref 21 = [21]; 21 Rodríguez J , Quiñoá E , Riguera R , Peters BM , Abrell LM , Crews P 1992 The structures and stereochemistry of cytotoxic sesquiterpene quinones from Dactylospongia elegans . Tetrahedron 48 , 6667; conditions: cited from earlier work
P-388 leukaemia cells = tested on: P-388 leukaemia cells; parameters: method as in ref 21 = [21]; 21 Rodríguez J , Quiñoá E , Riguera R , Peters BM , Abrell LM , Crews P 1992 The structures and stereochemistry of cytotoxic sesquiterpene quinones from Dactylospongia elegans . Tetrahedron 48 , 6667; conditions: cited from earlier work
A-549 lung = tested on: A-549 lung; parameters: method as in ref 21 = [21]; 21 Rodríguez J , Quiñoá E , Riguera R , Peters BM , Abrell LM , Crews P 1992 The structures and stereochemistry of cytotoxic sesquiterpene quinones from Dactylospongia elegans . Tetrahedron 48 , 6667; conditions: cited from earlier work
HT-29 colorectal = tested on: HT-29 colorectal; parameters: method as in ref 21 = [21]; 21 Rodríguez J , Quiñoá E , Riguera R , Peters BM , Abrell LM , Crews P 1992 The structures and stereochemistry of cytotoxic sesquiterpene quinones from Dactylospongia elegans . Tetrahedron 48 , 6667; conditions: cited from earlier work
epidermoid KB cell line = tested on: epidermoid KB cell line; parameters: method as in ref 22 = [22]; 22 Shigemori H , Madono T , Sasaki T , Mikami Y , Kobayashi JI 1994 Nakijiquinones A and B, new antifungal sesquiterpenoid quinones with an amino acid residue from an Okinawan marine sponge . Tetrahed; conditions: cited from earlier work
leukaemia L-1210 = tested on: leukaemia L-1210; parameters: method as in ref 22 = [22]; 22 Shigemori H , Madono T , Sasaki T , Mikami Y , Kobayashi JI 1994 Nakijiquinones A and B, new antifungal sesquiterpenoid quinones with an amino acid residue from an Okinawan marine sponge . Tetrahed; conditions: read-out: GI50 leukaemia L-1210; cited from earlier work
[4] = tested on: MCF10A (normal breast cell line); assay: MTT in vitro growth inhibition assay, MCF10A; type: cell-based; conditions: Homo sapiens, MCF-10A; for inhibition at 25 µM: 25 µM of drug, 72 h, read-out: Percentage of Cell Growth Inhibition MCF10A
[5] = tested on: MIA (pancreatic carcinoma); assay: MTT in vitro growth inhibition assay, MIA; type: cell-based; conditions: for inhibition at 25 µM: 25 µM of drug, 72 h, read-out: Percentage of Cell Growth Inhibition MIA
MCF-7 (breast carcinoma) = assay: MTT in vitro growth inhibition assay, MCF-7; type: cell-based; conditions: Homo sapiens; for inhibition at 25 µM: MCF7, 25 µM of drug, 72 h, read-out: Percentage of Cell Growth Inhibition MCF-7
A431 (skin carcinoma) = assay: MTT in vitro growth inhibition assay, A431; type: cell-based; conditions: Homo sapiens; for inhibition at 25 µM: A-431, 25 µM of drug, 72 h, read-out: Percentage of Cell Growth Inhibition A431
[6] = tested on: SMA (spontaneous murine astrocytoma); assay: MTT in vitro growth inhibition assay, SMA; type: cell-based; conditions: Mus musculus; for inhibition at 25 µM: 25 µM of drug, 72 h, read-out: Percentage of Cell Growth Inhibition SMA
HT29 (colon carcinoma) = assay: MTT in vitro growth inhibition assay, HT29; type: cell-based; conditions: Homo sapiens; for inhibition at 25 µM: HT-29, 25 µM of drug, 72 h, read-out: Percentage of Cell Growth Inhibition HT29
H460 (lung carcinoma) = assay: MTT in vitro growth inhibition assay, H460; type: cell-based; conditions: Homo sapiens; for inhibition at 25 µM: NCI-H460, 25 µM of drug, 72 h, read-out: Percentage of Cell Growth Inhibition H460
[7] = tested on: A2780 (ovarian carcinoma); assay: MTT in vitro growth inhibition assay, A2780; type: cell-based; conditions: Homo sapiens; for inhibition at 25 µM: 25 µM of drug, 72 h, read-out: Percentage of Cell Growth Inhibition A2780
[8] = tested on: panel of 11 cancer cell lines and one normal cell line; assay: Cytotoxicity across the whole cell line panel (MTT); type: cell-based; conditions: for activity at the initial screening concentration (to proceed to GI50 determination): 25 µM single dose
Description: With the desired bolinaquinone analogues 12–43 in hand, we examined their cytotoxicity against a panel of 11 tumour cell lines: HT29 (colon carcinoma), U87 and SJ-G2 (glioblastoma), MCF-7 (breast carcinoma), A2780 (ovarian carcinoma), H460 (lung carcinoma), A431 (skin carcinoma), Du145 (prostate carcinoma), BE2-C (neuroblastoma), MIA (pancreatic carcinoma), SMA (spontaneous murine astrocytoma) and a normal breast cell line (MCF10A). The inclusion of the MCF-10A cell line allowed a determination of a crude measure of relative toxicity while noting that the ultimate arbiter of toxicity requires in vivo evaluation. All analogues were initially screened at a 25 µM drug concentration.
Stock solutions were prepared as follows and stored at −20°C: drugs were stored as 40 mM solutions in DMSO. All cell lines were cultured in a humidified atmosphere 5% CO2 at 37°C. The cancer cell lines were maintained in Dulbecco's modified Eagle's medium (DMEM) (Trace Biosciences, Australia) supplemented with 10% fetal bovine serum, 10 mM sodium bicarbonate, penicillin (100 IU ml^−1), streptomycin (100 µg ml^−1) and glutamine (4 mM). The non-cancer MCF10A cell line was cultured in DMEM:F12 (1 : 1) cell culture media, 5% heat-inactivated horse serum, supplemented with penicillin (50 IU ml^−1), streptomycin (50 µg ml^−1), 20 mM Hepes, L-glutamine (2 mM), epidermal growth factor (20 ng ml^−1), hydrocortisone (500 ng ml^−1), cholera toxin (100 ng ml^−1) and insulin (10 ug ml^−1).
Cells in logarithmic growth were transferred to 96-well plates. Cytotoxicity was determined by plating cells in duplicate in 100 µl medium at a density of 2500–4000 cells per well. On day 0 (24 h after plating), when the cells were in logarithmic growth, 100 μl of medium with or without the test agent was added to each well. After 72 h, drug exposure growth inhibitory effects were evaluated using the MTT (3-[4,5-dimethylthiazol-2-yl]-2,5-diphenyl-tetrazolium bromide) assay and the absorbance read at 540 nm. Percentage growth inhibition was determined at a fixed drug concentration of 25 µM. A value of 100% is indicative of complete cell growth inhibition. Those analogues showing appreciable percentage growth inhibition underwent further dose–response analysis allowing for the calculation of a GI50 value. This value is the drug concentration at which cell growth is 50% inhibited based on the difference between the optical density values on day 0 and those at the end of drug exposure.

[9] = tested on: Du145 (prostate carcinoma); assay: MTT in vitro growth inhibition assay, Du145; type: cell-based; conditions: Homo sapiens; for inhibition at 25 µM: DU-145, 25 µM of drug, 72 h, read-out: Percentage of Cell Growth Inhibition Du145
SJ-G2 (glioblastoma) = assay: MTT in vitro growth inhibition assay, SJ-G2; type: cell-based; conditions: 25 µM of drug, 72 h, read-out: Percentage of Cell Growth Inhibition SJ-G2
U87 (glioblastoma) = assay: MTT in vitro growth inhibition assay, U87; type: cell-based; conditions: for inhibition at 25 µM: 25 µM of drug, 72 h, read-out: Percentage of Cell Growth Inhibition U87
BE2-C (neuroblastoma) = assay: MTT in vitro growth inhibition assay, BE2-C; type: cell-based; conditions: Homo sapiens, BE(2)-C, 72 h; for inhibition at 25 µM: 25 µM of drug, read-out: Percentage of Cell Growth Inhibition BE2-C

In the case of `COC1=CC(=O)C(O)=C(C[C@@]2(C)CC[C@]3(C)C(C)=CCC[C@H]3[C@H]2C)C1=O` [compound 1, bolinaquinone], the GI50 ([1]; 50% growth inhibition) is listed as 5300 nM.

For `CC1=CCC[C@H]2[C@](C)(CC3=CC(=O)C=C(NCCc4ccccc4)C3=O)[C@@H](C)CC[C@]12C` [compound 7, 18-phenethylaminoavarone], the GI50 (NCI-H929 myeloma) is listed as 1760 nM.

In the case of `CC1=CCC[C@H]2[C@](C)(CC3=CC(=O)C=C(NCC(C)C)C3=O)[C@@H](C)CC[C@]12C` [compound 6, dysidaminone E-5], the GI50 [2] is listed as 940 nM.

For `CC1=CCC[C@H]2[C@](C)(CC3=CC(=O)C=CC3=O)[C@@H](C)CC[C@]12C` [compound 2, avarone], the “ED50 L5178Y mouse lymphoma cells” value [3] is given as 620 ± 110 nM and the GI50 (HeLa) is given as 26800 ± 3000 nM.

In the case of `C=C1CCC[C@H]2[C@](C)(CC3=C(O)C(=O)C=C(OC)C3=O)[C@@H](C)CC[C@]12C` [compound 4, epi-ilimaquinone], the GI50 (melanoma B16/F10) is given as 3100 nM, the GI50 (P-388 leukaemia cells) is given as 6140 nM and the GI50 (A-549 lung) is given as 2510 nM. For the same molecule, the GI50 (HT-29 colorectal) was 9480 nM.

For `CC1=CCC[C@H]2[C@](C)(CC3=C(O)C(=O)C=C(NCC(=O)O)C3=O)[C@@H](C)CC[C@]12C` [compound 5, nakijiquinone A], the “GI50 epidermoid KB” value (epidermoid KB cell line) is listed as 18920 nM and the GI50 (leukaemia L-1210) is listed as 9460 nM.

For `COC1=CC(=O)C(OC)=C(c2cccc(C)c2)C1=O` [compound 14, 2,5-Dimethoxy-3-m-tolylcyclohexa-2,5-diene-1,4-dione], the inhibition at 25 µM [4] was 16 ± 5%, the inhibition at 25 µM [5] was 24 ± 7% and the inhibition at 25 µM (MCF-7 (breast carcinoma)) was 22 ± 11%. The inhibition at 25 µM (A431 (skin carcinoma)) was 26 ± 5%, the inhibition at 25 µM [6] was 36 ± 7% and the inhibition at 25 µM (HT29 (colon carcinoma)) was 12 ± 3%. It also gave a melting point of 74 to 77 °C, an inhibition at 25 µM (H460 (lung carcinoma)) of 19 ± 2% and an inhibition at 25 µM [7] of 59 ± 13%. For the same molecule, the “activity at the initial screening concentration (to proceed to GI50 determination)” value [8] was “not sufficiently active”, the inhibition at 25 µM [9] was 28 ± 8% and the inhibition at 25 µM (SJ-G2 (glioblastoma)) was 38 ± 18%. The inhibition at 25 µM (U87 (glioblastoma)) was 21 ± 7% and the inhibition at 25 µM (BE2-C (neuroblastoma)) was 80 ± 10%.

For `COC1=CC(=O)C(O)=C(C[C@@]2(C)[C@H](C)[C@@H]3CCCC(C)(C)C3=C[C@@H]2C)C1=O` [compound 3, mamanuthaquinone], the GI50 [1] is listed as 5580 nM.

`CCCNC1=C(c2ccc3ccccc3c2)C(=O)C(NCCC)=C(c2cccc3ccccc23)C1=O` [compound 43] gave an inhibition at 25 µM [4] of 89 ± 2%, a GI50 ([4]; normal breast cell line, 72 h drug exposure) of 70 nM and an inhibition at 25 µM [5] of 90 ± 2%. For the same molecule, the GI50 ([5]; 72 h drug exposure) was 100 nM, the inhibition at 25 µM (MCF-7 (breast carcinoma)) was 77 ± 2% and the GI50 (MCF-7 (breast carcinoma); MCF7, 72 h drug exposure) was 170 ± 100 nM. The inhibition at 25 µM (A431 (skin carcinoma)) was 92 ± 1%, the GI50 (A431 (skin carcinoma); A-431, 72 h, 72 h drug exposure) was 110 nM and the inhibition at 25 µM [6] was 80 ± 7%. For the same molecule, the GI50 ([6]; 72 h drug exposure) was 3900 ± 3500 nM, the inhibition at 25 µM (HT29 (colon carcinoma)) was 81 ± 2% and the GI50 (HT29 (colon carcinoma); HT-29, 72 h drug exposure) was 80 nM. The melting point was 210 to 213 °C, the inhibition at 25 µM (H460 (lung carcinoma)) was 76 ± 1% and the GI50 (H460 (lung carcinoma); NCI-H460, 72 h drug exposure) was 110 nM. For the same molecule, the inhibition at 25 µM [7] was 94 ± 1%, the GI50 ([7]; 72 h drug exposure) was 140 ± 100 nM and the “activity at the initial screening concentration (to proceed to GI50 determination)” value [8] was “sufficient activity”. For the same molecule, the “potency enhancement over parent analogue” value ([8]; 41 vs parent 29, 43 vs parent 33, on introduction of amine substituents) was “greater than or equal to 20 fold”, the GI50 ([8]; average over the cell line panel, read-out: average GI50) was 690 nM and the inhibition at 25 µM [9] was 80 ± 2%. It also gave a GI50 ([9]; DU-145, 72 h, 72 h drug exposure) of 160 ± 100 nM, an inhibition at 25 µM (SJ-G2 (glioblastoma)) of 55 ± 1% and an inhibition at 25 µM (U87 (glioblastoma)) of 91 ± 1%. The GI50 (U87 (glioblastoma); 72 h drug exposure) was 2100 ± 1000 nM, the inhibition at 25 µM (BE2-C (neuroblastoma)) was 44 ± 6% and the GI50 (BE2-C (neuroblastoma); 72 h drug exposure) was 80 nM.
